“Also recorded” adds a separate entry of the source.
Experiments:
[1] = system: HdhQ111 / HdhQ7 mouse striatal cells; experiment: Mitochondrial morphology, anti-Tom20 staining; assay type: cell-based
Description: Figure 4 HV-3 treatment reduces mitochondrial damage and cell death in HD cell cultures. Mouse HdhQ7 and HdhQ111 striatal cells were treated with control peptide TAT or peptide HV-3 (3 uM/day for 3 days). (a) Left panel: Mitochondrial membrane potential (MMP) was determined by TMRM fluorescent dye. Right panel: HdhQ111 cells were transfected with control siRNA (siCon) and VCP siRNA (siVCP) for three days. The MMP was determined by TMRM in HdhQ111 cells treated with TAT or HV-3. (b) Mitochondrial morphology was determined by staining cells with anti-Tom20 antibody. Scale bar: 10 μm. The percentage of cells with fragmented mitochondria relative to the total number of cells was quantitated. At least 100 cells per group were counted. (c) Mitochondrial morphology was determined by EM. The length of mitochondria and the number of mitophagosomes were quantitated. At least 90 mitochondria per group were counted. […] HMGB1 release into culture medium was determined by IB analysis with anti-HMGB1 antibody. […] Cell death was determined by the release of LDH. […] (g) Quantitation of neurite length of medium spiny neurons. At least 50 neurons per group were counted by an observer blind to experimental conditions. (h) Left: the MMP was determined by TMRM fluorescent dye. […] Mitochondrial length along neurites of DARPP32/Tuj1-positive neurons was quantitated. […]

[2] = system: HdhQ111 mouse striatal cells; experiment: Mitochondrial length and mitophagosomes by electron microscopy; assay type: cell-based; conditions: 3 uM/day for 3 days, EM
Text: The HdhQ7 and HdhQ111 cells were fixed by 2.5% glutaraldehyde in 0.1 M cacodylate buffer. Small pieces of the striata tissue of mice were fixed by immersion in triple aldehyde-DMSO. After rinsing in 0.1 M phosphate buffer (pH 7.3), the samples were post-fixed in ferrocyanide-reduced osmium tetroxide.
The above fixed samples were rinsed by water followed by overnight soaking in acidified uranyl acetate. After rinsing in distilled water, the blocks were dehydrated in ascending concentrations of ethanol, passed through propylene oxide, and embedded in Poly/Bed resin. Thin sections were sequentially stained with acidified uranyl acetate followed by a modification of Sato's triple lead stain. These sections were examined in a FEI Tecnai Spirit (T12) transmission electron microscope with a Gatan US4000 4kx4k CCD at the Case Western Reserve University EM core facility. Mitochondria from 15 random areas in each group were imaged by an experimenter blind to the experimental groups. The length of mitochondria was measured by NIH Image J software. The number of mitophagosomes per 100 μm^2 was counted. The number of gold particles labelling VCP on mitochondria were quantitated.

[3] = system: C57Black mice; experiment: Toxicity analysis in naive mice; assay type: in vivo, mouse
Description: Supplementary Figure 8 : Toxicity analysis of HV -3in naïve mice .
We performed a toxicity analysis of HV-3 in mice. Six -week-old C57Black mice were treated with saline or peptide HV-3 at 3mg/kg/day by Alzet pump implantation. After 4- week treatment, the plasma, blood and whole mouse bodies of mice were collected. Examination on blood chemistry (Supplementary Table 1), hematology (Supplementary Table 2) and general necropsy of mice were performed at the Animal Diagnostic Laboratory at Stanford University. The experimenter who conducted the analysis was blind to the treatment groups. Automated hematology was performed on the Sysmex XT-2000iV analyzer system. Blood smears were made for all full CBC samples and reviewed by a medical technologist. Manual differentials were performed as indicated by species and automated analysis. Chemistry analysis was performed on the Siemens Dimension Xpand analyzer.
(a) Frozen tissue sections of brain and spleen were stained with anti-CD3 antibody by immunohistochemistry. There is no observed difference in the immuno-density of CD3 between saline-and HV-3- treated groups. Scale bar: 100 µm. (b) The size and weight of spleens in mice treated with saline or peptide HV-3 were compared. Left: the ratio of spleen weight to body weight was calculated and expressed as mean ± SEM of five mice in each group. Right: the images of spleens of mice treated with saline or peptide HV-3. There is no observed difference in the size of the spleens. Paired Student’s t test. Four-week sustained treatment with HV-3 by pump implantation had no effects on blood chemistry (Supplementary Table 1), hematology (Supplementary Table 2), and gross necropsy of naïve mice when compared to mice treated with saline. A four-week treatment with HV-3 had […] on immuno-density of CD3, a marker of T-cell for adaptive immune response, in the brains and spleens of naïve mice (a). Treatment with HV-3 had no effects on the size and weight of the spleens (b). […]

[4] = 3 mg/kg/day, 4 weeks, versus saline

For `CSCC[C@H](NC(=O)[C@@H](NC(=O)[C@H](CC(C)C)NC(=O)[C@@H](NC(=O)[C@H](Cc1c[nH]cn1)NC(=O)CCCCCNC(=O)[C@H](CCCNC(=N)N)NC(=O)[C@H](CCCNC(=N)N)NC(=O)[C@H](CCCNC(=N)N)NC(=O)[C@H](CCC(N)=O)NC(=O)[C@H](CCCNC(=N)N)NC(=O)[C@H](CCCNC(=N)N)NC(=O)[C@H](CCCCN)NC(=O)[C@H](CCCCN)NC(=O)[C@H](CCCNC(=N)N)NC(=O)CNC(=O)[C@@H](N)Cc1ccc(O)cc1)C(C)C)C(C)C)C(=O)N[C@@H](CS)C(=O)N[C@@H](C)C(=O)N[C@H](C(N)=O)[C@@H](C)O` [HV-3], the fragmented mitochondria ([1]; HdhQ111 cells, 3 uM/day for 3 days, anti-Tom20) was “reduced the number of fragmented mitochondria”, the “mitochondrial morphology, wt” value ([1]; wt counterparts of the HD models) was “only minor effects” and the mitochondrial length [2] was “increased mitochondrial length”. For the same molecule, the number of mitophagosomes [2] was “reduced this accumulation; also recorded: greatly reduced the accumulation of mitophagosomes”, the toxicity ([3]; 3 mg kg^−1 per day, 4-week Alzet pump) was “not toxic to naive mice” and the “CD3 immunodensity in brain and spleen” value [3, 4] was “no significant effects on the immunodensity of CD3”. The gross necropsy [3, 4] was “no effects” and the “size and weight of spleens” value ([3]; 3 mg/kg/day, 4 weeks, versus saline, n = 5) was “no obvious effects on the size and weight of the spleens”.

Reference: article PMC5007466, “VCP recruitment to mitochondria causes mitophagy impairment and neurodegeneration in models of Huntington's disease” (Nature Communications, 2016)
